In patent US20210290604A1, “COMPOUNDS FOR TREATMENT OF INFLAMMATORY BOWEL DISEASE AND METHODS THEREOF” (priority 2018, published 2021):

Test system: TNBS-induced colitis
Experiment: TNBS-induced colitis in mice, oral dosing once a day Days 1-7
Type: in vivo, female SJL mice
Parameters: Disease Activity Index, Mean / Fecal Consistency, Mean: scale not given here
Conditions: for Colon Length, Mean / Colon Weight, Mean / Colon Weight/Length ratio, Mean: at euthanasia; for Histopathological severity score, Mean: colon H&E, score 0-4; for overall conclusion as compared to TNBS-vehicle (in words): oral
Description: Healthy young female SJL mice were used for the study. At the commencement of the study, the mice were between 8-9 weeks of age, weighing 20-22 g. All the mice were obtained from The Jackson Laboratory, Bar Harbor, Me. 04609 USA.
After seven days of acclimatization, mice were grouped according to their body weight. There was one group of ten mice and five groups of fifteen mice each. Five groups of fifteen mice each were challenged intra-rectally with 100 μl of 2.0% TNBS in 50% EtOH and other group of ten mice were challenged intra-rectally with 100 μl of 50% EtOH and serve as No-TNBS control. The experimental groups were as follows:
The mice were challenged intra-rectally with 100 μl of 2% TNBS in 50% ethanol under light anesthesia with ketamine/xylazine. The test compounds were administrated an hour prior to intra-rectal administration of TNBS as per scheduled daily dosing.
Vehicle and no-TNBS control groups received 0.5% CMC orally from Day 1 to Day 7.
Body Weight: The body weights were measured daily for 1-7 days using a laboratory balance.
Disease Activity Index: The clinical assessment of the mice was performed beginning Day 2 (a day after the intra-rectal administration of TNBS). The clinical assessment includes body weight, stool consistency and the presence of blood in the stools and scored according to Table 2.
Colon Length and Weight: the mice were euthanized using CO2 asphyxiation and colon from the colocecal junction to the anus was removed, washed and cleaned of all fecal matter using PBS. The colon length and weight were measured and then preserved in 10% NBF for histopathology.
Histopathology: Formalin fixed colon samples were submitted to affiliated histopathology laboratory for histopathological analysis subjected to hematoxylin and eosin (H & E) staining using standard techniques. Each colon was trimmed from both ends and mid. All three sections were stained and evaluated.
A board certified veterinarian pathologist assessed the presence of colitis and severity score according to the following criteria: • 0=no sign of inflammation • 1=very low level of inflammation • 2=low level of leukocytic infiltration, low level of inflammation • 3=high level of leukocytic infiltration, high vascular density, inflammation and thickening of colon wall • 4=transmural infiltration, loss of goblet cells, high vascular density, crypt abscesses, thickening of colon wall and ulceration.
The data is presented as the mean±standard error (SEM) obtained from Microsoft Excel or GraphPad Prism version 5.00 for Windows (GraphPad Software, San Diego Calif. USA). The data was analyzed using two-way ANOVA using Bonferroni post-test. Differences between groups were considered significant at p<0.05.

O=C(Nc1ccc2[nH]c(=O)oc2c1)C(=O)N1CCC(Cc2ccc(F)cc2)CC1 [Radiprodil, 2-[4-[(4-fluorophenyl)methyl]piperidin-1-yl]-2-oxo-N-(2-oxo-3H-1,3-benzoxazol-6-yl)acetamide]
Disease Activity Index vs TNBS-vehicle group (in words) (30 mg/kg): No significant differences | histopathology, cell morphological changes / severity (in words) (30 mg/kg PO QD (Table 1)): reduced severity | body weight change as compared to the TNBS-vehicle group (in words) (30 mg/kg po): significant improvement beginning Day 4, with the exception of Day 3 | Percent Change in Body Weight, Mean (Day 1, 30 mg/kg PO QD): 0.00% | Percent Survivability (Day 1, 30 mg/kg PO QD): 100.000% | Disease Activity Index, Mean (Day 2, 30 mg/kg PO QD): 1.84 | Fecal Consistency, Mean (Day 2, 30 mg/kg PO QD): 1.20 | Occult Positivity, Mean (Day 2, 30 mg/kg PO QD): 2.00 | Percent Change in Body Weight, Mean (Day 2, 30 mg/kg PO QD): −10.51% | Percent Survivability (Day 2, 30 mg/kg PO QD): 100.000% | Disease Activity Index, Mean (Day 3, 30 mg/kg PO QD): 2.24 | Fecal Consistency, Mean (Day 3, 30 mg/kg PO QD): 1.33 | Occult Positivity, Mean (Day 3, 30 mg/kg PO QD): 2.53 | Percent Change in Body Weight, Mean (Day 3, 30 mg/kg PO QD): −13.08% | Percent Survivability (Day 3, 30 mg/kg PO QD): 100.000% | Disease Activity Index, Mean (Day 4, 30 mg/kg PO QD): 2.13 | Fecal Consistency, Mean (Day 4, 30 mg/kg PO QD): 1.23 | Occult Positivity, Mean (Day 4, 30 mg/kg PO QD): 2.46 | Percent Change in Body Weight, Mean (Day 4, 30 mg/kg PO QD): −10.35% | Percent Survivability (Day 4, 30 mg/kg PO QD): 86.670% | Disease Activity Index, Mean (Day 5, 30 mg/kg PO QD): 1.78 | Fecal Consistency, Mean (Day 5, 30 mg/kg PO QD): 1.00 | Occult Positivity, Mean (Day 5, 30 mg/kg PO QD): 2.33 | Percent Change in Body Weight, Mean (Day 5, 30 mg/kg PO QD): −8.29% | Percent Survivability (Day 5, 30 mg/kg PO QD): 80.000% | Disease Activity Index, Mean (Day 6, 30 mg/kg PO QD): 1.67 | Fecal Consistency, Mean (Day 6, 30 mg/kg PO QD): 1.00 | Occult Positivity, Mean (Day 6, 30 mg/kg PO QD): 2.17 | Percent Change in Body Weight, Mean (Day 6, 30 mg/kg PO QD): −7.58% | Percent Survivability (Day 6, 30 mg/kg PO QD): 80.000% | Disease Activity Index, Mean (Day 7, 30 mg/kg PO QD): 1.50 | Fecal Consistency, Mean (Day 7, 30 mg/kg PO QD): 1.00 | Occult Positivity, Mean (Day 7, 30 mg/kg PO QD): 1.83 | Percent Change in Body Weight, Mean (Day 7, 30 mg/kg PO QD): −6.95% | Percent Survivability (Day 7, 30 mg/kg PO QD): 80.000% | Colon Length, Mean (30 mg/kg PO QD Days 1-7): 8.42 cm | Colon Weight, Mean (30 mg/kg PO QD Days 1-7): 0.3095 g | Colon Weight/Length ratio, Mean (30 mg/kg PO QD Days 1-7): 37.7622 mg/cm | Histopathological severity score, Mean (30 mg/kg PO QD Days 1-7): 1.61 | overall conclusion as compared to TNBS-vehicle (in words) (30 mg/kg): showed improvement in colitis as well as in the loss of body weight, DAI, colon length, weight and weight/length ratio

C[C@@H]([C@H](O)c1ccc(O)cc1)N1CCC(Cc2ccccc2)CC1 (racemic) [Ifenprodil, 4-[2-(4-benzylpiperidin-1-ium-1-yl)-1-hydroxypropyl] phenol; 2,3,4-trihydroxy-4-oxobutanoate]
Disease Activity Index vs TNBS-vehicle group (in words) (30 mg/kg): No significant differences | histopathology, cell morphological changes / severity (in words) (30 mg/kg PO QD (Table 1)): statistically significantly reducing cell morphological changes associated with disease | body weight change as compared to the TNBS-vehicle group (in words) (30 mg/kg po): significant improvement beginning on Day 4 | Percent Change in Body Weight, Mean (Day 1, 30 mg/kg PO QD): 0.00% | Percent Survivability (Day 1, 30 mg/kg PO QD): 100.000% | Disease Activity Index, Mean (Day 2, 30 mg/kg PO QD): 1.62 | Fecal Consistency, Mean (Day 2, 30 mg/kg PO QD): 1.00 | Occult Positivity, Mean (Day 2, 30 mg/kg PO QD): 1.86 | Percent Change in Body Weight, Mean (Day 2, 30 mg/kg PO QD): −9.38% | Percent Survivability (Day 2, 30 mg/kg PO QD): 93.000% | Disease Activity Index, Mean (Day 3, 30 mg/kg PO QD): 2.04 | Fecal Consistency, Mean (Day 3, 30 mg/kg PO QD): 1.71 | Occult Positivity, Mean (Day 3, 30 mg/kg PO QD): 2.14 | Percent Change in Body Weight, Mean (Day 3, 30 mg/kg PO QD): −11.31% | Percent Survivability (Day 3, 30 mg/kg PO QD): 93.000% | Disease Activity Index, Mean (Day 4, 30 mg/kg PO QD): 2.14 | Fecal Consistency, Mean (Day 4, 30 mg/kg PO QD): 2.00 | Occult Positivity, Mean (Day 4, 30 mg/kg PO QD): 2.62 | Percent Change in Body Weight, Mean (Day 4, 30 mg/kg PO QD): −9.44% | Percent Survivability (Day 4, 30 mg/kg PO QD): 86.600% | Disease Activity Index, Mean (Day 5, 30 mg/kg PO QD): 1.82 | Fecal Consistency, Mean (Day 5, 30 mg/kg PO QD): 1.67 | Occult Positivity, Mean (Day 5, 30 mg/kg PO QD): 2.33 | Percent Change in Body Weight, Mean (Day 5, 30 mg/kg PO QD): −7.64% | Percent Survivability (Day 5, 30 mg/kg PO QD): 80.000% | Disease Activity Index, Mean (Day 6, 30 mg/kg PO QD): 1.56 | Fecal Consistency, Mean (Day 6, 30 mg/kg PO QD): 1.33 | Occult Positivity, Mean (Day 6, 30 mg/kg PO QD): 2.00 | Percent Change in Body Weight, Mean (Day 6, 30 mg/kg PO QD): −6.68% | Percent Survivability (Day 6, 30 mg/kg PO QD): 80.000% | Disease Activity Index, Mean (Day 7, 30 mg/kg PO QD): 1.41 | Fecal Consistency, Mean (Day 7, 30 mg/kg PO QD): 1.17 | Occult Positivity, Mean (Day 7, 30 mg/kg PO QD): 1.83 | Percent Change in Body Weight, Mean (Day 7, 30 mg/kg PO QD): −6.23% | Percent Survivability (Day 7, 30 mg/kg PO QD): 80.000% | Colon Length, Mean (30 mg/kg PO QD Days 1-7): 8.93 cm | Colon Weight, Mean (30 mg/kg PO QD Days 1-7): 0.2145 g | Colon Weight/Length ratio, Mean (30 mg/kg PO QD Days 1-7): 24.5065 mg/cm | Histopathological severity score, Mean (30 mg/kg PO QD Days 1-7): 1.06 | overall conclusion as compared to TNBS-vehicle (in words) (30 mg/kg): showed improvement in colitis as well as in the loss of body weight, DAI, colon length, weight and weight/length ratio

Nc1ccc(O)c(C(=O)O)c1 [5-ASA, 5-Amino-2-hydroxybenzoic acid]
histopathology, cell morphological changes / severity (in words) (100 mg/kg PO QD (Table 1)): statistically significantly reducing cell morphological changes associated with disease | body weight change as compared to the TNBS-vehicle group (in words) (100 mg/kg po): significant improvement beginning on Day 4 | Percent Change in Body Weight, Mean (Day 1, 100 mg/kg PO QD): 0.00% | Percent Survivability (Day 1, 100 mg/kg PO QD): 100.000% | Fecal Consistency, Mean (Day 2, 100 mg/kg PO QD): 1.47 | Occult Positivity, Mean (Day 2, 100 mg/kg PO QD): 1.33 | Percent Change in Body Weight, Mean (Day 2, 100 mg/kg PO QD): −10.01% | Percent Survivability (Day 2, 100 mg/kg PO QD): 100.000% | Occult Positivity, Mean (Day 3, 100 mg/kg PO QD): 2.00 | Percent Change in Body Weight, Mean (Day 3, 100 mg/kg PO QD): −10.45% | Percent Survivability (Day 3, 100 mg/kg PO QD): 100.000% | Percent Change in Body Weight, Mean (Day 4, 100 mg/kg PO QD): −9.33% | Percent Survivability (Day 4, 100 mg/kg PO QD): 93.000% | Fecal Consistency, Mean (Day 5, 100 mg/kg PO QD): 1.38 | Occult Positivity, Mean (Day 5, 100 mg/kg PO QD): 2.15 | Percent Change in Body Weight, Mean (Day 5, 100 mg/kg PO QD): −7.81% | Percent Survivability (Day 5, 100 mg/kg PO QD): 86.670% | Fecal Consistency, Mean (Day 6, 100 mg/kg PO QD): 0.83 | Occult Positivity, Mean (Day 6, 100 mg/kg PO QD): 1.67 | Percent Change in Body Weight, Mean (Day 6, 100 mg/kg PO QD): −5.87% | Percent Survivability (Day 6, 100 mg/kg PO QD): 80.000% | occult positivity as compared to TNBS-vehicle (in words) (Day 7, 100 mg/kg): significant improvements | Fecal Consistency, Mean (Day 7, 100 mg/kg PO QD): 0.83 | Occult Positivity, Mean (Day 7, 100 mg/kg PO QD): 1.17 | Percent Change in Body Weight, Mean (Day 7, 100 mg/kg PO QD): −6.09% | Percent Survivability (Day 7, 100 mg/kg PO QD): 80.000% | Colon Length, Mean (100 mg/kg PO QD Days 1-7): 9.08 cm | Colon Weight, Mean (100 mg/kg PO QD Days 1-7): 0.2494 g | Histopathological severity score, Mean (100 mg/kg PO QD Days 1-7): 1.08 | overall conclusion as compared to TNBS-vehicle (in words) (100 mg/kg): showed improvement in the colitis, loss of body weight and disease activity index
